The source of these data is patent publication US10246456B2, “IRAK4 inhibiting agents” (BIOGEN MA INC., priority 2014, dated 2019).

By IC50 is commonly meant the concentration needed to halve the response being measured. Higher therefore signals a need for much substance. As usually defined, the EC50 is the concentration needed to bring the measured effect to its halfway point. Low readings indicate greater potency, high ones weaker potency.

One experiment has as its target IRAK4 (Homo sapiens (Human), UniProt Q9NWZ3). Nature of the experiment: IRAK-4 AlphaScreen biochemical kinase assay. The conditions noted are these: 1 nM IRAK4, 1 mM ATP, 3.5 h at RT. Put shortly: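 AlphaScreen read-out: streptavidin beads bind the biotinylated peptide and protein A beads bind the anti-phosphothreonine antibody, so energy transfer reports phosphorylation of the peptide. The kinase is human IRAK-4.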
In general terms: Alpha assays give light when donor and acceptor beads are brought close together.

A further experiment has as its system IL-6 in A549 cells. The experiment in a line: Cell-based IL-6 ELISA assay in IL-1beta stimulated A549 cells. The conditions noted are these: 2 ng/ml human IL-1beta overnight. In outline:
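A549 cells (2.5×10^4/well, DMEM/10% FBS) pretreated 30 min at 37 C with compound, 10-point serial dilution from 10 uM, then stimulated overnight with 2 ng/ml human IL-1beta. Secreted IL-6 in supernatant quantified by human IL-6 ELISA.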
On the technique in general: In an ELISA, binding on a coated surface is turned into a signal by an enzyme label.

Chain of IRAK4 (Q9NWZ3 whole entry, species assumed): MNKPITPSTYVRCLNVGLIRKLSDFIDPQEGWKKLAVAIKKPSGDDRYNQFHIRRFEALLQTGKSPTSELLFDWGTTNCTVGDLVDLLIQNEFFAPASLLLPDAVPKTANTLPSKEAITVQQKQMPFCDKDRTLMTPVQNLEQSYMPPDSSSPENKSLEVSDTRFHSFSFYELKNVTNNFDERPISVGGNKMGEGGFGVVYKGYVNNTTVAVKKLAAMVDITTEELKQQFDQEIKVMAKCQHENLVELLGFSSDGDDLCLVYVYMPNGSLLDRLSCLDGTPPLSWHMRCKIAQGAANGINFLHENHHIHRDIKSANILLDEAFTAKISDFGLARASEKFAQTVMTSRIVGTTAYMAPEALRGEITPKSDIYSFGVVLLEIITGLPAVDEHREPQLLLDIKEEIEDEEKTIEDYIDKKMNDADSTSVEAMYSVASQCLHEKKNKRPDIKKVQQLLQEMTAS

In turn, `CCC[C@H](N)c1cccc(-c2cc(C3CCN(C(C)=O)CC3)c3cnn(-c4cccc(CO)n4)c3c2)n1` [Example 515, (S)-1-(4-(6-(6-(1-aminobutyl)pyridin-2-yl)-1-(6-(hydroxymethyl)pyridin-2-yl)-1H-indazol-4-yl)piperidin-1-yl)ethanone] registered an IC50 at IRAK4 of less than 100 nM. The same compound had an EC50 with IL-6 in A549 cells not above 1000 nM.
For `CCC[C@H](N)c1cccc(-c2cc(CN(C)C)c3cnn(-c4cccc(CO)n4)c3c2)n1` [Example 517, (S)-(6-(6-(6-(1-aminobutyl)pyridin-2-yl)-4-((dimethylamino)methyl)-1H-indazol-1-yl)pyridin-2-yl)methanol], in that order: less than 100 nM and not above 1000 nM.
For `CCC[C@H](N)c1cccc(-c2ccc3cnn(-c4cccc(CF)n4)c3c2)n1` [Example 518, (S)-1-(6-(1-(6-(fluoromethyl)pyridin-2-yl)-1H-indazol-6-yl)pyridin-2-yl)butan-1-amine], in that order: less than 100 nM and not above 1000 nM.
For `CSCC(N)c1cccc(-c2ccc3cnn(-c4cccc(CO)n4)c3c2)n1` (stereo not shown) [Example 520, (6-(6-(6-(1-amino-2-(methylthio)ethyl)pyridin-2-yl)-1H-indazol-1-yl)pyridin-2-yl)methanol], in that order: less than 100 nM and not above 1000 nM.
`CC(C)C[C@H](N)c1cccc(-c2ccc3cnn(-c4cccc(CO)n4)c3c2)n1` [Example 521, (S)-(6-(6-(6-(1-amino-3-methylbutyl)pyridin-2-yl)-1H-indazol-1-yl)pyridin-2-yl)methanol] yielded an IC50 on IRAK4 of less than 100 nM. This compound also displayed an EC50 in the experiment on IL-6 in A549 cells not above 1000 nM.
As for `CCC[C@H](N)c1cccc(-c2cc(OCCC3CC3)c3cnn(-c4cccc(CO)n4)c3c2)n1` [Example 522, (S)-(6-(6-(6-(1-aminobutyl)pyridin-2-yl)-4-(2-cyclopropylethoxy)-1H-indazol-1-yl)pyridin-2-yl)methanol], the 50% inhibitory concentration (IC50) against IRAK4 was less than 100 nM. For the same compound, in the experiment on IL-6 in A549 cells, the EC50 was not above 1000 nM.
The like results for `CCC[C@H](N)c1cccc(-c2cc(OC(F)(F)F)c3cnn(-c4cccc(CO)n4)c3c2)n1` [Example 523, (S)-(6-(6-(6-(1-aminobutyl)pyridin-2-yl)-4-(trifluoromethoxy)-1H-indazol-1-yl)pyridin-2-yl)methanol] were, in that order, less than 100 nM and not above 1000 nM.
For `C[C@H](N)c1cccc(-c2cc(C3=NCCO3)c3cnn(-c4cccc(CO)n4)c3c2)n1` [Example 524, (S)-(6-(6-(6-(1-aminoethyl)pyridin-2-yl)-4-(4,5-dihydrooxazol-2-yl)-1H-indazol-1-yl)pyridin-2-yl)methanol], in that order: less than 100 nM and not above 1000 nM.
Regarding `CCC[C@H](N)c1cccc(-c2cc(OC(F)F)c3cnn(-c4cncc(CO)n4)c3c2)n1` [Example 526, (S)-(6-(6-(6-(1-aminobutyl)pyridin-2-yl)-4-(difluoromethoxy)-1H-indazol-1-yl)pyrazin-2-yl)methanol], the IC50 at IRAK4 was less than 100 nM. In the experiment with IL-6 in A549 cells, this compound registered an EC50 not above 1000 nM.
Compound `CCC[C@H](NC)c1cccc(-c2ccc3cnn(-c4cccc(CO)n4)c3c2)n1` [Example 527, (S)-(6-(6-(6-(1-(methylamino)butyl)pyridin-2-yl)-1H-indazol-1-yl)pyridin-2-yl)methanol] displayed an IC50 on IRAK4 of less than 100 nM. Further, the concentration for a half-maximal effect (EC50) in the experiment with IL-6 in A549 cells was not above 1000 nM.
The like results for `CC1COC(c2cc(-c3cccc([C@H](C)N)n3)cc3c2cnn3-c2cccc(CO)n2)=N1` (stereo partly drawn) [Example 528, (6-(6-(6-((S)-1-aminoethyl)pyridin-2-yl)-4-(4-methyl-4,5-dihydrooxazol-2-yl)-1H-indazol-1-yl)pyridin-2-yl)methanol] were, in that order, less than 100 nM and not above 1000 nM.
The like results for `NC(CO)c1cccc(-c2ccc3cnn(-c4cccc(CO)n4)c3c2)n1` (stereo not shown) [Example 530, 2-amino-2-(6-(1-(6-(hydroxymethyl)pyridin-2-yl)-1H-indazol-6-yl)pyridin-2-yl)ethanol] were, in that order, 100 to 1000 nM and not above 1000 nM.
For `CCC[C@H](N)c1cccc(-c2ccc3cnn(-c4nccc(C(F)(F)F)n4)c3c2)n1` [Example 531, (S)-1-(6-(1-(4-(trifluoromethyl)pyrimidin-2-yl)-1H-indazol-6-yl)pyridin-2-yl)butan-1-amine], in that order: less than 100 nM and not above 1000 nM.
For the compound `CS(=O)(=O)CC(N)c1cccc(-c2ccc3cnn(-c4cccc(CO)n4)c3c2)n1` (stereo not shown) [Example 532, (6-(6-(6-(1-amino-2-(methylsulfonyl)ethyl)pyridin-2-yl)-1H-indazol-1-yl)pyridin-2-yl)methanol], at IRAK4, the IC50 is less than 100 nM. Also, in the experiment on IL-6 in A549 cells, the EC50 is not above 1000 nM.
On IRAK4, `CC[C@H](N)c1cccc(-c2cc(C#N)c3cnn(-c4cccc(CO)n4)c3c2)n1` [Example 533, (S)-6-(6-(1-aminopropyl)pyridin-2-yl)-1-(6-(hydroxymethyl)pyridin-2-yl)-1H-indazole-4-carbonitrile] registered an IC50 of less than 100 nM. In the experiment with IL-6 in A549 cells, the EC50 was not above 1000 nM.
On to `NC(CC1CC1)c1cccc(-c2ccc3cnn(-c4cccc(CO)n4)c3c2)n1` (stereo not shown) [Example 535, (6-(6-(6-(1-amino-2-cyclopropylethyl)pyridin-2-yl)-1H-indazol-1-yl)pyridin-2-yl)methanol], for which, on IRAK4, the IC50 is less than 100 nM. This compound also returned an EC50 in the experiment with IL-6 in A549 cells not above 1000 nM.
The like results for `Cc1cccc(-n2ncc3c(-c4cnco4)cc(-c4cccc(C(C)N)n4)cc32)n1` (stereo not shown) [Example 536, 1-(6-(1-(6-methylpyridin-2-yl)-4-(oxazol-5-yl)-1H-indazol-6-yl)pyridin-2-yl)ethanamine] were, in that order, less than 100 nM and not above 1000 nM.
For `C[C@H](N)c1cccc(-c2cc(C#N)c3cnn(-c4cccc(CO)n4)c3c2)n1` [Example 537, (S)-6-(6-(1-aminoethyl)pyridin-2-yl)-1-(6-(hydroxymethyl)pyridin-2-yl)-1H-indazole-4-carbonitrile], in that order: less than 100 nM and not above 1000 nM.
The like results for `NC(c1cccc(-c2ccc3cnn(-c4cccc(CO)n4)c3c2)n1)C1CC1` (stereo not shown) [Example 538, (6-(6-(6-(amino(cyclopropyl)methyl)pyridin-2-yl)-1H-indazol-1-yl)pyridin-2-yl)methanol] were, in that order, less than 100 nM and not above 1000 nM.
`CC[C@H](N)c1cccc(-c2ccc3cnn(-c4cccc(C(F)F)n4)c3c2)n1` [Example 539, (S)-1-(6-(1-(6-(difluoromethyl)pyridin-2-yl)-1H-indazol-6-yl)pyridin-2-yl)propan-1-amine] came in with an IC50 at IRAK4 of less than 100 nM. Further, the concentration for a half-maximal effect (EC50) in the experiment with IL-6 in A549 cells fell in the range of 1000 to 10000 nM.
For `C[C@H](N)c1cccc(-c2cc(C(=O)NC(C)(C)CO)c3cnn(-c4cccc(CO)n4)c3c2)n1` [Example 540, (S)-6-(6-(1-aminoethyl)pyridin-2-yl)-N-(1-hydroxy-2-methylpropan-2-yl)-1-(6-(hydroxymethyl)pyridin-2-yl)-1H-indazole-4-carboxamide], on IRAK4, the IC50 fell in the range of 100 to 1000 nM. Also, the EC50 with IL-6 in A549 cells was 1000 to 10000 nM.
The like results for `C[C@H](N)c1cccc(-c2ccc3cnn(-c4nccc(C(F)F)n4)c3c2)n1` [Example 541, (S)-1-(6-(1-(4-(difluoromethyl)pyrimidin-2-yl)-1H-indazol-6-yl)pyridin-2-yl)ethanamine] were, in that order, 100 to 1000 nM and 1000 to 10000 nM.
The like results for `Cc1cccc(-n2ncc3c(-c4ncco4)cc(-c4cccc(C(C)N)n4)cc32)n1` (stereo not shown) [Example 542, 1-(6-(1-(6-methylpyridin-2-yl)-4-(oxazol-2-yl)-1H-indazol-6-yl)pyridin-2-yl)ethanamine] were, in that order, less than 100 nM and 1000 to 10000 nM.
For `COCC(N)c1cccc(-c2ccc3cnn(-c4cccc(CO)n4)c3c2)n1` (stereo not shown) [Example 543, (6-(6-(6-(1-amino-2-methoxyethyl)pyridin-2-yl)-1H-indazol-1-yl)pyridin-2-yl)methanol], in that order: less than 100 nM and 1000 to 10000 nM.
On IRAK4, `CN(C)C(=O)C(N)c1cccc(-c2ccc3cnn(-c4cccc(CO)n4)c3c2)n1` (stereo not shown) [Example 544, 2-amino-2-(6-(1-(6-(hydroxymethyl)pyridin-2-yl)-1H-indazol-6-yl)pyridin-2-yl)-N,N-dimethylacetamide] registered an IC50 of less than 100 nM. In addition, the EC50 in the experiment on IL-6 in A549 cells was in the range of 1000 to 10000 nM.
For `C[C@H](N)c1cccc(-c2ccc3cnn(-c4ccc(F)c(CO)n4)c3c2)n1` [Example 545, (S)-(6-(6-(6-(1-aminoethyl)pyridin-2-yl)-1H-indazol-1-yl)-3-fluoropyridin-2-yl)methanol], in that order: less than 100 nM and 1000 to 10000 nM.
For `CCC[C@H](N)c1cccc(-c2ccc3cnn(-c4cncc(C(F)(F)F)n4)c3c2)n1` [Example 546, (S)-1-(6-(1-(6-(trifluoromethyl)pyrazin-2-yl)-1H-indazol-6-yl)pyridin-2-yl)butan-1-amine], in that order: less than 100 nM and 1000 to 10000 nM.
The like results for `CC(N)CNC(=O)c1cc(-c2cccc([C@H](C)N)n2)cc2c1cnn2-c1cccc(CO)n1` (stereo partly drawn) [Example 548, 6-(6-((S)-1-aminoethyl)pyridin-2-yl)-N-(2-aminopropyl)-1-(6-(hydroxymethyl)pyridin-2-yl)-1H-indazole-4-carboxamide] were, in that order, 100 to 1000 nM and 1000 to 10000 nM.
As for `CCCC(O)c1cccc(-c2ccc3cnn(-c4cccc(CO)n4)c3c2)n1` (stereo not shown) [Example 550, 1-(6-(1-(6-(hydroxymethyl)pyridin-2-yl)-1H-indazol-6-yl)pyridin-2-yl)butan-1-ol], the IC50 at IRAK4 is 1000 to 10000 nM. For the same compound, the EC50 in the experiment with IL-6 in A549 cells was in the range of 1000 to 10000 nM.
